Test results as given in patent publication US20230406850A1, “CRYSTALLINE FORM OF HETEROCYCLIC COMPOUND, PREPARATION METHOD THEREFOR AND APPLICATION THEREOF” (WUHAN LL SCIENCE AND TECHNOLOGY DEVELOPMENT CO., LTD., priority 2020, published 2023).
≈ marks a conversion by molar mass, not a printed value. One block for each compound: values may come before it.

Columns and labels:
[1] = Dynamic vapor sorption (DVS) hygroscopicity; format: physicochemical
Procedure: The solid was analyzed by DVS using IGA sorp dynamic vapor sorption instrument. • Temperature: 25° C. • Gas flow: 250 mL/min. • Scan cycle: 2. • Minimum test time: 30 min. • Maximum test time: 2 hours. • Waiting for balance: 98%.

[2] = Water activity experiment (slurry in acetone/water); format: physicochemical; details: three days
Procedure: Water activity experiment was carried out. Crystalline forms I and V ([…]) were slurried in a mixed solvent in acetone/water with different water contents at room temperature and 60° C. for three days, and after three days, solid sample was filtered to test XRPD, and the experimental results are as shown in Table 4.

[3] = Competitive slurrying experiment of crystalline forms I and V; format: physicochemical; details: acetone, ethanol, room temperature and 60° C., three days
Procedure: Competitive slurrying experiment was carried out: the same amount of crystalline forms I and V were weighed and mixed evenly, then XRPD was tested, and the results were used as T0 of competitive slurrying experiment. The mixture was slurried in acetone, ethanol and water at room temperature and 60° C. Three days later, solid samples were obtained by filtration, and. XRPD was tested.

[4] = Solid-state crystal transformation between crystalline forms I and V; format: physicochemical; details: mixture of forms I and V, oven at 60° C. and room temperature dryer, one week
[5] = Physical and chemical stability (stability boxes, XRPD and HPLC); format: physicochemical
Procedure: About 10 mg of crystalline forms I, III and V were placed in the stability boxes at 40° C./75% RH (open) and 60° C. (covered) for seven days, and some samples were taken out for XRPD and HPLC tests at 0 and 7 days, respectively, to investigate their physical and chemical stability.

[6] = Mechanical stability test (grinding and pelleting); format: physicochemical; details: grinding 2 min and 5 min
Procedure: The mechanical stability of crystalline forms I and III were investigated by grinding and pelleting. Grinding test method: the sample to be measured was put in a mortar and grinded for 2 minutes and 5 minutes respectively, then XRPD was test, and the changes of crystalline form and crystallinity were observed. Pelleting test method: the sample was placed in the die of tablet press, kept at 40 MPa for one minute, and then the crystalline form taken out to test XRPD.

[7] = Solubility in biological media SGF, FaSSIF and FeSSIF; format: physicochemical
Procedure: Compared with other crystalline forms, crystalline forms I, III and V show good solid properties, so their solubility was tested respectively.
10 mg of the sample was weighed, and then 2.0 mL of biological media buffer (i.e. the target concentration is 5 mg/mL) was added to form a suspension. The mixture was put in a constant temperature water bath shaker (37° C., 100 rpm), and sampled 500 μL at 0.5, 2 and 24 hours respectively. After filtration, the pH value and HPLC concentration of filtrate were tested respectively, and the solid sample obtained by filtration was tested by XRPD.

[8] = Pharmacokinetics, crystalline form I versus crystalline form V; format: in vivo, Beagle dog; details: 10 mg/kg po, fasting, male dogs
Procedure: Beagle dog (general grade, Beijing Masi Biotechnology Co., Ltd.) was given compound A by single oral gavage to study the pharmacokinetics of the compound in plasma. The test drug (100 mg/kg dosage, 5 mL/kg administration volume) was given by gavage, and samples were collected at 10 minutes, 30 minutes, 1 hour, 2 hours, 4 hours, 6 hours, 8 hours, 10 hours, 24 hours and 48 hours after administration: peripheral venipuncture was performed, and about 1.0 mL whole blood was collected from each animal at every time point, and blood samples were collected. Within 60 minutes after blood collection, 0.2 mL of whole blood was separated into a cryopreservation tube, and deionized water was added at a ratio of 1:1, which was mixed upside down and then frozen. The remaining samples were centrifuged at 2,000 g at 2 to 8° C. for 10 min to obtain plasma samples, and the hemolysis of each sample was recorded, and the influence on detection was evaluated, and then the color of plasma was observed and recorded on the blood collection table (“−” means no hemolysis, “+” means pink supernatant and “++” means red supernatant).
The concentration of compound A in plasma was determined by LC-MS/MS method (Non-GLP). The pharmacokinetic parameters were calculated by WinNonlin (Phoenix™, version 8.1) or other similar software. If applicable plasma drug concentration-time data are available, the following pharmacokinetic parameters are calculated: CL (clearance), Vss (steady-state apparent volume of distribution), T1/2 (elimination half-life), Cmax (peak concentration), Tmax (peak time), AUC (area under the concentration-time curve), MRT (mean residence time). Pharmacokinetic data were described by descriptive statistics, such as mean, standard deviation and sample size.
Comparison of crystalline form and crystalline form V is the same for 3 dogs (male), 10 mg/kg po, fasting, 0.5% CMC-Na stirring for 3 hours, and then administration (suspension), and the data obtained are as shown in Table 7.

SD rats = assay: Taste disorder test by double bottle method; format: in vivo, rat; details: single intraperitoneal injection, 15 minutes
Source text: SPF male SD rats (6-8 weeks) received 3 days of adaptive drinking water training immediately after storage, and the specific training content was that animals were kept in a single cage, and two bottles of water (both common drinking water) were placed in each cage, and during the adaptive training, water treatment was forbidden all night (the drinking water bottle was removed), and drinking water was given again at 8:30 am to 5:30 pm, and then this cycle lasted for 3 days, and the two bottles of water were changed every day, and during the whole adaptive training period, animals were ate freely. All animal water bottles were removed 20 hours before the formal experiment, and water was banned until the time of the experiment. During the formal experiment, all animals were randomly divided into groups, and the test compound or vehicle was given before the water supply was renewed, and the drug was given by single intraperitoneal injection, and the administration time was determined according to the Tmax of the test compound. Then, the animals were placed in a single cage, and given two bottles of drinking water, one bottle of ordinary drinking water and one bottle of 0.3 mM tonic water, and the water consumption of animals was observed within 15 minutes, and the quinine water consumption/ordinary water consumption was statistically analyzed, with positive compound 2 as the positive control of taste disorder.

refractory cough = details: phase II clinical trial; cited from earlier work
[9] = male, beagle, dog, plasma, po, 10 mg/kg, 0.5% CMC-Na suspension

SMILES: COC(=O)N1CCO[C@@H](Cc2c(-c3c(F)cc(S(N)(=O)=O)cc3F)nc3cc(Cl)ccn23)C1 [Crystalline form I, methyl (S)-2-((7-chloro-2-(2,6-difluoro-4-sulfamoylphenyl)imidazo[1,2-a]pyridin-3-yl)methyl)morpholine-4-carboxylate]
XRPD before and after the DVS test [1]: remains unchanged | relative humidity above which transformed into hydrate of crystalline form IV [1]: higher than 40 % RH | DVS pattern, behaviour in words ([1]; 25° C.): increases sharply | hygroscopicity (DVS) ([1]; 80% RH, 25° C.): 6.8% | The experimental results (crystalline form) ([2]; water content 10%, 60° C.): Crystalline form VI | The experimental results (crystalline form) ([2]; water content 10%, RT): Crystalline form I | The experimental results (crystalline form) ([2]; water content 50%, 60° C.): Crystalline form IV | The experimental results (crystalline form) ([2]; water content 50%, RT): Crystalline form IV | The experimental results (crystalline form) ([2]; water content 90%, 60° C.): Crystalline form IV | The experimental results (crystalline form) ([2]; water content 90%, RT): Crystalline form IV | relative stability inferred from competitive slurrying and water activity tests [3]: more stable in organic solvent system or mixed solvent with low water content (≤10%) | mutual crystal transformation in solid state [4]: no mutual crystal transformation trend | Initial purity (Peak area %) ([5]; 0 days): 99.38 peak area % | Purity -7 days (peak area %) ([5]; 40° C./75% RH (open)): 99.38 peak area % | stability conclusion in words ([5]; 40° C./75% RH and 60° C., seven days): good chemical stability | Purity -7 days (peak area %) ([5]; 60° C. (covered)): 99.37 peak area % | crystalline form and crystallinity after grinding [6]: decreased significantly | crystalline form during the solubility test ([7]; FaSSIF and FeSSIF buffer): transformed into hydrate of crystalline form IV | pH of filtrate ([7]; FaSSIF, 0.5 h): 6.4 | Solubility ([7]; FaSSIF, 0.5 h, 37° C.): 26 µg/mL (≈ 51.9 µM) | pH of filtrate ([7]; FaSSIF, 2 h): 6.4 | Solubility ([7]; FaSSIF, 2 h, 37° C.): 25 µg/mL (≈ 49.9 µM) | pH of filtrate ([7]; FaSSIF, 24 h): 6.4 | Solubility ([7]; FaSSIF, 24 h, 37° C.): 34 µg/mL (≈ 67.9 µM) | solubility at 0.5 h ([7]; FeSSIF, 37 °C, fessif, thermodynamic from solid, FeSSIF, 0.5 h, 37° C., read-out: Solubility): 72 µg/mL (≈ 144 µM) | solubility at 2 h ([7]; FeSSIF, 37 °C, fessif, thermodynamic from solid, FeSSIF, 2 h, 37° C., read-out: Solubility): 83 µg/mL (≈ 166 µM) | solubility at 24 h ([7]; FeSSIF, 37 °C, thermodynamic from solid, 24 h): 107 µg/mL (≈ 214 µM) | pH of filtrate ([7]; FeSSIF, 0.5 h): 5.0 | pH of filtrate ([7]; FeSSIF, 2 h): 5.1 | pH of filtrate ([7]; FeSSIF, 24 h): 5.1 | pH of filtrate ([7]; SGF, 0.5 h): 1.2 | pH of filtrate ([7]; SGF, 2 h): 1.3 | pH of filtrate ([7]; SGF, 24 h): 1.2 | AUC (crystalline form I):AUC (crystalline form V) [8]: 300.53% | AUClast ([8]; 0.5% CMC-Na suspension, plasma): 7926.33 ng·h/mL | Cmax ([8]; 0.5% CMC-Na suspension, plasma): 991.33 ng/mL | F ([8]; 0.5% CMC-Na suspension, plasma): 35.2% | T1/2 ([8]; 0.5% CMC-Na suspension, plasma): 11.91 h | Tmax ([8]; 0.5% CMC-Na suspension, plasma): 2.00 h | AUC(0-inf) [8, 9]: 8940 ng·h/mL | MRT last [8, 9]: 8.11 h

Quinine/tap water * 100% (SD rats; 10 mg/kg): 18.62% | Quinine/tap water * 100% (SD rats; 20 mg/kg): 34.99%
SMILES: COc1cc(C(C)C)c(Oc2cnc(N)nc2N)cc1S(N)(=O)=O [Positive compound 2, reference compound]
effect on refractory cough (refractory cough): good effect | taste side effect (refractory cough): taste disturbance is a serious problem
